In ChEMBL document CHEMBL3217422, “Design of membrane targeting tobramycin-based cationic amphiphiles with reduced hemolytic activity” (Medchemcomm, 2013):
Values after ≈ are worked out from the molar mass of the structure shown.

Key:
[1] = Induction of hemolysis in rat RBC assessed as hemoglobin release at 64 ug/ml after 1 hr by microplate reader analysis; format: cell-based, Erythrocyte; conditions: red blood cells, read-out: Activity
Shigella sonnei [2] = experiment: Antibacterial activity against O-antigen negative Shigella sonnei clinical isolate 6831 assessed as growth inhibition after 24 hrs by double dilution method; format: functional; conditions: isolate 6831, 24 h
Shigella sonnei [3] = experiment: Antibacterial activity against O-antigen positive Shigella sonnei clinical isolate 6831 assessed as growth inhibition after 24 hrs by double dilution method; format: functional; conditions: isolate 6831, 24 h
Pseudomonas aeruginosa = experiment: Antibacterial activity against Pseudomonas aeruginosa ATCC 33347 assessed as growth inhibition after 24 hrs by double dilution method; format: functional; conditions: ATCC 33347, 24 h
[4] = system: Staphylococcus epidermidis; experiment: Antibacterial activity against Staphylococcus epidermidis ATCC 12228 assessed as growth inhibition after 24 hrs by double dilution method; format: functional; conditions: ATCC 12228, 24 h
[5] = system: Staphylococcus epidermidis; experiment: Antibacterial activity against Staphylococcus epidermidis ATCC 35984 assessed as growth inhibition after 24 hrs by double dilution method; format: functional; conditions: ATCC 35984, 24 h
Staphylococcus aureus [6] = experiment: Antibacterial activity against Staphylococcus aureus ATCC 9144 assessed as growth inhibition after 24 hrs by double dilution method; format: functional; conditions: ATCC 9144, 24 h
Enterococcus faecalis = experiment: Antibacterial activity against Enterococcus faecalis ATCC 29212 assessed as growth inhibition after 24 hrs by double dilution method; format: functional; conditions: ATCC 29212, 24 h
Enterococcus = experiment: Antibacterial activity against vancomycin-resistant Enterococcus assessed as growth inhibition after 24 hrs by double dilution method; format: functional
Streptococcus mutans [7] = experiment: Antibacterial activity against Streptococcus mutans UA159 assessed as growth inhibition after 24 hrs by double dilution method; format: functional; conditions: UA159, 24 h
Staphylococcus aureus [8] = experiment: Antibacterial activity against Methicillin-resistant Staphylococcus aureus assessed as growth inhibition after 24 hrs by double dilution method; format: functional
[9] = Antibacterial activity against Streptococcus pyogenes serotype M12 strain MGAS9429 assessed as growth inhibition after 24 hrs by double dilution method; format: functional; conditions: MGAS9429, 24 h
[10] = Induction of hemolysis in rat RBC assessed as hemoglobin release at 128 ug/ml after 1 hr by microplate reader analysis; format: cell-based, Erythrocyte; conditions: red blood cells, read-out: Activity
[11] = system: Staphylococcus epidermidis; experiment: Antibacterial activity against Staphylococcus epidermidis ATCC 35984 assessed as biofilm growth inhibition after 24 hrs by double dilution method; format: functional
Streptococcus mutans [12] = experiment: Antibacterial activity against Streptococcus mutans UA159 assessed as biofilm growth inhibition after 24 hrs by double dilution method; format: functional
[13] = Induction of hemolysis in rat RBC assessed as hemoglobin release at 32 ug/ml after 1 hr by microplate reader analysis; format: cell-based, Erythrocyte; conditions: red blood cells, read-out: Activity
[14] = system: Streptococcus pyogenes serotype M12; experiment: Ratio of tobramycin MIC to compound MIC against Streptococcus pyogenes serotype M12 strain MGAS9429 after 24 hrs by double dilution method; format: functional
[15] = Induction of hemolysis in rat RBC assessed as hemoglobin release at 32 to 128 ug/ml after 1 hr by microplate reader analysis; format: cell-based; conditions: erythrocyte

SMILES	hemolysis at 1 h, 64 ug/ml [1] [%]	MIC (Shigella sonnei [2]) [µg/mL]	MIC (Shigella sonnei [3]) [µg/mL]	MIC (Pseudomonas aeruginosa) [µg/mL]	MIC [4] [µg/mL]	MIC [5] [µg/mL]	MIC (Staphylococcus aureus [6]) [µg/mL]	MIC (Enterococcus faecalis) [µg/mL]	MIC (Enterococcus) [µg/mL]	MIC (Streptococcus mutans [7]) [µg/mL]	MIC (Staphylococcus aureus [8]) [µg/mL]	MIC [9] [µg/mL]	hemolysis at 1 h, 128 ug/ml [10] [%]	MBIC [11] [µg/mL]	MBIC (Streptococcus mutans [12]) [µg/mL]	hemolysis at 1 h, 32 ug/ml [13] [%]	Ratio [14]	Activity [15]
CCCCCCCCCCCCCCCCS(=O)(=O)C[C@H]1O[C@H](O[C@@H]2[C@@H](O)[C@H](O[C@H]3O[C@H](CN)[C@@H](O)C[C@H]3N)[C@@H](N)C[C@H]2N)[C@H](O)[C@@H](N)[C@@H]1O	37.9	128 (≈ 173 µM)	32 (≈ 43.2 µM)	> 128	16 (≈ 21.6 µM)	16 (≈ 21.6 µM)	8 (≈ 10.8 µM)	64 (≈ 86.5 µM)	32 (≈ 43.2 µM)	8 (≈ 10.8 µM)	32 (≈ 43.2 µM)	8 (≈ 10.8 µM)	–	–	–	–	–	–
CCCCCCCCCCCCC(=O)NC[C@H]1O[C@H](O[C@@H]2[C@@H](O)[C@H](O[C@H]3O[C@H](CN)[C@@H](O)C[C@H]3N)[C@@H](N)C[C@H]2N)[C@H](O)[C@@H](N)[C@@H]1O	0	128 (≈ 193 µM)	128 (≈ 193 µM)	32 (≈ 48.3 µM)	8 (≈ 12.1 µM)	8 (≈ 12.1 µM)	16 (≈ 24.1 µM)	128 (≈ 193 µM)	64 (≈ 96.5 µM)	4 (≈ 6.03 µM)	128 (≈ 193 µM)	16 (≈ 24.1 µM)	10.2	8	8	–	–	–
CCCCCCCCCCCCCCSC[C@H]1O[C@H](O[C@@H]2[C@@H](O)[C@H](O[C@H]3O[C@H](CN)[C@@H](O)C[C@H]3N)[C@@H](N)C[C@H]2N)[C@H](O)[C@@H](N)[C@@H]1O	74.4	32 (≈ 47.1 µM)	16 (≈ 23.5 µM)	128 (≈ 188 µM)	4 (≈ 5.88 µM)	4 (≈ 5.88 µM)	8 (≈ 11.8 µM)	64 (≈ 94.1 µM)	16 (≈ 23.5 µM)	2 (≈ 2.94 µM)	32 (≈ 47.1 µM)	2 (≈ 2.94 µM)	–	8	4	23	16	–
CCCCCCCCCCCCc1cn(C[C@H]2O[C@H](O[C@@H]3[C@@H](O)[C@H](O[C@H]4O[C@H](CN)[C@@H](O)C[C@H]4N)[C@@H](N)C[C@H]3N)[C@H](O)[C@@H](N)[C@@H]2O)nn1	26.3	64 (≈ 93.2 µM)	64 (≈ 93.2 µM)	64 (≈ 93.2 µM)	16 (≈ 23.3 µM)	8 (≈ 11.6 µM)	16 (≈ 23.3 µM)	128 (≈ 186 µM)	32 (≈ 46.6 µM)	4 (≈ 5.82 µM)	128 (≈ 186 µM)	8 (≈ 11.6 µM)	89.1	16	4	–	–	–
NC[C@H]1O[C@H](O[C@H]2[C@H](O)[C@@H](O[C@H]3O[C@H](CO)[C@@H](O)[C@H](N)[C@H]3O)[C@H](N)C[C@@H]2N)[C@H](N)C[C@@H]1O [TOBRAMYCIN]	–	32 (≈ 68.4 µM)	16 (≈ 34.2 µM)	> 128	< 1	128 (≈ 274 µM)	16 (≈ 34.2 µM)	> 128	> 128	128 (≈ 274 µM)	> 128	64 (≈ 137 µM)	–	128	64	–	–	–
CCCCCCCCCCCCCCS(=O)(=O)C[C@H]1O[C@H](O[C@@H]2[C@@H](O)[C@H](O[C@H]3O[C@H](CN)[C@@H](O)C[C@H]3N)[C@@H](N)C[C@H]2N)[C@H](O)[C@@H](N)[C@@H]1O	74.4	64 (≈ 89.9 µM)	32 (≈ 44.9 µM)	128 (≈ 180 µM)	16 (≈ 22.5 µM)	16 (≈ 22.5 µM)	16 (≈ 22.5 µM)	64 (≈ 89.9 µM)	32 (≈ 44.9 µM)	4 (≈ 5.62 µM)	64 (≈ 89.9 µM)	4 (≈ 5.62 µM)	–	8	4	23	–	–
CCCCCCCCCCCCCCCCc1cn(C[C@H]2O[C@H](O[C@@H]3[C@@H](O)[C@H](O[C@H]4O[C@H](CN)[C@@H](O)C[C@H]4N)[C@@H](N)C[C@H]3N)[C@H](O)[C@@H](N)[C@@H]2O)nn1	37.9	64 (≈ 86.1 µM)	128 (≈ 172 µM)	> 128	4 (≈ 5.38 µM)	8 (≈ 10.8 µM)	16 (≈ 21.5 µM)	128 (≈ 172 µM)	16 (≈ 21.5 µM)	8 (≈ 10.8 µM)	32 (≈ 43.1 µM)	16 (≈ 21.5 µM)	–	–	–	–	–	–
CCCCCCCCCCCCCCCCSC[C@H]1O[C@H](O[C@@H]2[C@@H](O)[C@H](O[C@H]3O[C@H](CN)[C@@H](O)C[C@H]3N)[C@@H](N)C[C@H]2N)[C@H](O)[C@@H](N)[C@@H]1O	37.9	64 (≈ 90.4 µM)	32 (≈ 45.2 µM)	> 128	4 (≈ 5.65 µM)	8 (≈ 11.3 µM)	16 (≈ 22.6 µM)	128 (≈ 181 µM)	64 (≈ 90.4 µM)	4 (≈ 5.65 µM)	64 (≈ 90.4 µM)	4 (≈ 5.65 µM)	–	–	–	–	–	–
CCCCCCCCCCCCCCc1cn(C[C@H]2O[C@H](O[C@@H]3[C@@H](O)[C@H](O[C@H]4O[C@H](CN)[C@@H](O)C[C@H]4N)[C@@H](N)C[C@H]3N)[C@H](O)[C@@H](N)[C@@H]2O)nn1	74.4	32 (≈ 44.8 µM)	32 (≈ 44.8 µM)	128 (≈ 179 µM)	4 (≈ 5.59 µM)	8 (≈ 11.2 µM)	8 (≈ 11.2 µM)	128 (≈ 179 µM)	32 (≈ 44.8 µM)	4 (≈ 5.59 µM)	64 (≈ 89.5 µM)	4 (≈ 5.59 µM)	–	16	4	23	16	–
CCCCCCCCCCCCS(=O)(=O)C[C@H]1O[C@H](O[C@@H]2[C@@H](O)[C@H](O[C@H]3O[C@H](CN)[C@@H](O)C[C@H]3N)[C@@H](N)C[C@H]2N)[C@H](O)[C@@H](N)[C@@H]1O	–	> 128	> 128	> 128	128 (≈ 187 µM)	64 (≈ 93.6 µM)	64 (≈ 93.6 µM)	> 128	64 (≈ 93.6 µM)	16 (≈ 23.4 µM)	> 128	32 (≈ 46.8 µM)	–	32	16	–	–	Toxic
CCCCCCCCCCCCCCCCC(=O)NC[C@H]1O[C@H](O[C@@H]2[C@@H](O)[C@H](O[C@H]3O[C@H](CN)[C@@H](O)C[C@H]3N)[C@@H](N)C[C@H]2N)[C@H](O)[C@@H](N)[C@@H]1O	37.9	32 (≈ 44.5 µM)	32 (≈ 44.5 µM)	128 (≈ 178 µM)	4 (≈ 5.56 µM)	4 (≈ 5.56 µM)	8 (≈ 11.1 µM)	128 (≈ 178 µM)	32 (≈ 44.5 µM)	4 (≈ 5.56 µM)	32 (≈ 44.5 µM)	8 (≈ 11.1 µM)	–	–	–	–	–	–
CCCCCCCCCCCCCCC(=O)NC[C@H]1O[C@H](O[C@@H]2[C@@H](O)[C@H](O[C@H]3O[C@H](CN)[C@@H](O)C[C@H]3N)[C@@H](N)C[C@H]2N)[C@H](O)[C@@H](N)[C@@H]1O	74.4	32 (≈ 46.3 µM)	16 (≈ 23.2 µM)	128 (≈ 185 µM)	4 (≈ 5.79 µM)	4 (≈ 5.79 µM)	8 (≈ 11.6 µM)	64 (≈ 92.6 µM)	32 (≈ 46.3 µM)	4 (≈ 5.79 µM)	32 (≈ 46.3 µM)	4 (≈ 5.79 µM)	–	8	4	23	16	–
CCCCCCCCCCCCSC[C@H]1O[C@H](O[C@@H]2[C@@H](O)[C@H](O[C@H]3O[C@H](CN)[C@@H](O)C[C@H]3N)[C@@H](N)C[C@H]2N)[C@H](O)[C@@H](N)[C@@H]1O	–	64 (≈ 98.2 µM)	32 (≈ 49.1 µM)	128 (≈ 196 µM)	8 (≈ 12.3 µM)	8 (≈ 12.3 µM)	16 (≈ 24.5 µM)	128 (≈ 196 µM)	64 (≈ 98.2 µM)	8 (≈ 12.3 µM)	64 (≈ 98.2 µM)	8 (≈ 12.3 µM)	71.6	16	4	–	–	–
